According to PMC4381587, “A novel PI3K inhibitor PIK-C98 displays potent preclinical activity against multiple myeloma” (Oncotarget, 2014):

How the values were obtained:
[1] = biological target: recombinant human PI3K isoform γ (Homo sapiens, UniProt P48736); test: Kinase activity in cell-free assay (HotSpot), PI3Kγ; format: biochemical; conditions: read-out: IC50 against PI3K γ isoform
Description: (§1) To confirm this hypothesis, the inhibitory potency of C98 on PI3K enzymes was measured in a cell-free system with individual recombinant human PI3K isoforms. […] To further evaluate its specificity on PI3K, the effects of C98 on other associated kinases AKT, PDK1, and mTOR were also measured in the enzymatic systems. […] Therefore, C98 preferred to inhibit PI3K activity.
(§2) Figure 1 C98 inhibits PI3K activity (A) Chemical structure of C98. (B) OPM2 cells were starved overnight and then treated with six compounds identified from the virtual screening for 2 hr, followed by IGF-1 stimulation for 15 min. Cell lysates were prepared for AKT expression and phosphorylation analyses. The known PI3K inhibitor S14161 was used as a positive control. (C) OPM2 cells were starved overnight, then treated with C98 at indicated concentration (25, 50 and 100 μM) or S14161 (100 μM) for 2 hr, followed by IGF-1 (100 ng/mL) stimulation for 15 min Cell lysates were prepared for AKT expression and phosphorylation analyses. […] Activity of each kinase was determined with HotSpot technology as described in the Methods section “Kinase activity in cell-free assay”. […]

[2] = system: AKT; test: Kinase activity in cell-free assay, AKT; format: biochemical; conditions: enzymatic system; read-out: IC50 on AKT activation
Description: as §1
Kinase activity in the presence of C98 was performed by using the HotSpot technology (Reaction Biology Corp., Malvern, PA, USA) as described previously.

[3] = system: AKT phosphorylation in OPM2 cells; test: Immunoblotting of AKT phosphorylation in starved, IGF-1-stimulated OPM2 cells; format: cell-based, human; conditions: OPM2 starved overnight, C98 25-100 μM, 0.5-2 hr, then IGF-1 100 ng/mL 15 min
Description: as §1, §2

[4] = system: ERK; test: Immunoblotting of ERK phosphorylation in OPM2 and JJN3 cells; format: cell-based, human; conditions: OPM2 and JJN3, 24 hr
Description: (§3) (B) LP1 and JJN3 cells were starved overnight, then treated with C98 or S14161 for 2 hr, followed by IGF-1 (100 ng/mL) for 15 min. Cells were then prepared for the analysis of the expression of p-AKT, t-AKT, p-IGF-1R, and IGF-1R by immunoblotting. (C) OPM2 and JJN3 cells were treated with increasing concentrations of C98 for 24 hr before being applied to immunoblotting against p-ERK, t-ERK, p-P38, t-P38, p-Src, t-Src, p-STAT3, or t-STAT3. GAPDH and β-actin were used as loading controls.
(§4) To further clarify the effects of C98 on other signaling pathways associated with PI3K signaling, we evaluated ERK and p38, both of which mediate extracellular signaling similar to PI3K. […] We also checked the phosphorylation status of STAT3, a signal transducer and activator of transcription. […] Therefore, C98 had no effects on these kinases/proteins associated with PI3K signaling.
(§5) The immunoblotting assays were performed as described previously. IRDye 680 goat anti-mouse and IRDye 800CW goat anti-rabbit antibodies were from Odyssey (San Ramon, CA, USA).

[5] = system: c-Src; test: Immunoblotting of c-Src phosphorylation in OPM2 and JJN3 cells; format: cell-based, human; conditions: OPM2 and JJN3, 24 hr
Description: as §3, §4, §5

[6] = system: STAT3; test: Immunoblotting of STAT3 phosphorylation in OPM2 and JJN3 cells; format: cell-based, human; conditions: OPM2 and JJN3, 24 hr
Description: as §3, §4, §5

[7] = system: JJN3 cells; test: Immunoblotting of caspase-3 activation in JJN3 cells; format: cell-based, human; conditions: JJN3, 0-20 μM 24 hr or 10 μM 0-9 hr
Description: To answer whether C98 could induce apoptosis in other MM cells, 5 more MM cells were subject to the study. […] Cell apoptosis induced by C98 was further confirmed by the increased fraction of positive cells stained with Annexin V (Figure 5). To show whether activated PI3K signals can rescue C98 effects on MM cells, both OPM2 and RPMI-8226 cells were treated with IGF-1 alone or together with C98 for 48 hr followed by MTT assay.
Figure 4 C98 activates apoptotic signaling in MM cells (A) JJN3 cells were treated with C98 (0, 2.5, 5, 10, 20 μM) for 24 hr or 10 μM for 0, 3, 6, or 9 hr, followed by immunoblotting for the expression of p-AKT, t-AKT, pro-caspase-3 (Pro-Casp3), and cleaved caspase-3 (Cle-Casp3). (B) KMS11, LP1, OCI-My5, OPM2, JJN3, and RPMI-8226 were treated with C98 (20 μM) for 24 hr, followed by immunoblotting for the expression of PARP, Pro-Casp3, and Cle-Casp3. GAPDH was used as a loading control.
as §5

[8] = system: OPM2 xenograft; test: OPM2 myeloma xenograft in nude mice; format: in vivo; conditions: 80 mg/kg oral daily

Chain of recombinant human PI3K isoform γ (P48736 whole entry, canonical isoform): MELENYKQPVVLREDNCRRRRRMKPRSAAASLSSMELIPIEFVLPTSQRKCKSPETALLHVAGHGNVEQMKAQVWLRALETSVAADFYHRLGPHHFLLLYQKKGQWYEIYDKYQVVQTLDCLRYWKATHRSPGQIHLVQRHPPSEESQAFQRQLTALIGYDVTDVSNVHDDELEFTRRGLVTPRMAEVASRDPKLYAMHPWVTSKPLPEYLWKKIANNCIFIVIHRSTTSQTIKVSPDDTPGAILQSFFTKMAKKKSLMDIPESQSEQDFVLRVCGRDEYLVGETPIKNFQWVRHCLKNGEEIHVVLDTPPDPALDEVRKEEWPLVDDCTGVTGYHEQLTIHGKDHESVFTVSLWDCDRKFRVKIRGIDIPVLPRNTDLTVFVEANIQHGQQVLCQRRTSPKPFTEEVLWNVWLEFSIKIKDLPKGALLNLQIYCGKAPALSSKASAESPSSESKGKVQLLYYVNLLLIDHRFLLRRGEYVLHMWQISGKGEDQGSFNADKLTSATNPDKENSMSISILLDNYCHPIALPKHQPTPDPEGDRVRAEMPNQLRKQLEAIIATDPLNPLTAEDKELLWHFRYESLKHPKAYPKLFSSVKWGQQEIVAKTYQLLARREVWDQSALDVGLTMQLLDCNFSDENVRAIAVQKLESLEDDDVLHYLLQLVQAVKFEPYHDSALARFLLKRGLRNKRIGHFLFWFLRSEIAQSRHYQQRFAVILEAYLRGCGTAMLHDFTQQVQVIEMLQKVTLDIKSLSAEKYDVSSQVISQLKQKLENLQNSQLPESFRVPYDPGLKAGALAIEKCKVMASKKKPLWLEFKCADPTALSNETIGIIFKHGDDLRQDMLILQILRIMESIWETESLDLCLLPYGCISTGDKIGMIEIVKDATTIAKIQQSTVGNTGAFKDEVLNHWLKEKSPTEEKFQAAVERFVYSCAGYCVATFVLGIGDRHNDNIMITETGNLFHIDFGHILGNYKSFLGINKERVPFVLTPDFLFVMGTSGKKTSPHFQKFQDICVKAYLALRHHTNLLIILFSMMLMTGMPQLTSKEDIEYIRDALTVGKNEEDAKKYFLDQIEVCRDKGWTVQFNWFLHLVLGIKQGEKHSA

IC50 [1]: 0.74 µM | IC50 [2]: 61.4 µM
Compound: N#C/C(=C\C=C\c1ccc(-c2cc(Cl)ccc2Cl)o1)C(N)=S [C98]
AKT phosphorylation [3]: inhibited AKT phosphorylation in a time- and concentration-dependent manner | phosphorylation level of ERK [4]: failed to decrease | phosphorylation of c-Src [5]: failed to inhibit | phosphorylated STAT3 [6]: did not decrease | caspase-3 activation [7]: activated caspase-3 in a time- and concentration-dependent manner | tumors decreased to % of the vehicle control ([8]; 16-day treatment): 45% | tumor volume at the end of the experiment ([8]; 16 days): 605.8 ± 115.7 mm^3
